Assay results: US12202840B2, “Compounds for the treatment or alleviation of disorders associated with Tau aggregates” (AC Immune SA, priority 2018, dated 2025)

What was measured:
Type in all cases: in vivo
sarkosyl-insoluble Tau = target: T1, sarkosyl-insoluble Tau (Homo sapiens, UniProt P10636, P618L); assay: Sarkosyl-insoluble Tau quantification in cortex, study of Example 2; conditions: rTg4510 mice cortex, once daily by gavage, 7 and 20 mg/kg; statistical significance at 20 mg/kg; FIG. 5
T1 construct: expressing the full-length human Tau carrying the P301L mutation (Tau4R0N-P301L); from tissue; host or cells: brain (cortex) of double transgenic rTg4510 mice
T1 sequence (P10636 1-383 isoform P10636-6 P243L): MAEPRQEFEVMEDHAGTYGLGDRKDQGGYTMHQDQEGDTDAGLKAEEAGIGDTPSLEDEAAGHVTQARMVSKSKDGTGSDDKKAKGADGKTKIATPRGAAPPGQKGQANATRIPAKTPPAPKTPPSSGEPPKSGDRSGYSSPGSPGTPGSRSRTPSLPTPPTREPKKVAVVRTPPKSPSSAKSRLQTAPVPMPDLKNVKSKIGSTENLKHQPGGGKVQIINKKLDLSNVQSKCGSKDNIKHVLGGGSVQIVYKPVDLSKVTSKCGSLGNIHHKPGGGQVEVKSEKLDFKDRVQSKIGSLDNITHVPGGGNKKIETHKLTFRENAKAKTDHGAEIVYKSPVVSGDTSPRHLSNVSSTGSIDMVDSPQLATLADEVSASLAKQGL
Description: (§1) Double transgenic rTg4510 mice are an aggressive Tauopathy model expressing the full-length human Tau carrying the P301L mutation (Tau4R0N-P301L) under the control of the tetracycline-inducible CaMKII promoter (Ramsden et al., 2005). Wild-type animals and single transgenic mice expressing only the tetracycline-controlled transactivator (tTA) were used as genotype controls. Mice were treated and tested. The study comprised 4 treatment groups (n=15 female mice/group) with the following group distribution (see Table 6). Compound of the invention or vehicle control were administered once daily by gavage for 12 weeks starting at the age of 5.5 weeks. The Morris Water Maze (MWM) behavioral test was performed after 12.5 weeks of treatment over 5 consecutive days. During MWM testing daily dosing was continued. Behavioral testing (MWM) and biochemical quantification of sarkosyl-insoluble Tau were performed on all mice (n=15 mice/group). Measurement of cortical atrophy and histology for Iba1 were performed on 10 mice/group.
After behavioral testing, mice were deeply anesthetized by standard injectable anesthesia and transcardially perfused with cold PBS. Brains were then removed and hemi-sagitally hemisected. […] The membranes were finally scanned using LiCor scanner (Odyssey Infrared Imager) and quantified using the LiCor software Image Studio Lite Version 5.2. […]

rTg4510 mice = assay: Cortex size (cortical atrophy), study of Example 2; conditions: once daily by gavage, 7 and 20 mg/kg, statistical significance at the higher dose, FIG. 6A
Description: as §1
After behavioral testing, mice were deeply anesthetized by standard injectable anesthesia and transcardially perfused with cold PBS. Brains were then removed and hemi-sagitally hemisected. […] A systematic random set of sections from seven sagittal levels per animal was used to quantify the cortex size.

Iba1 positive microglia = assay: Iba1 immunoreactivity (microgliosis), study of Example 2; conditions: rTg4510 mice, once daily by gavage, 20 mg/kg; FIG. 6B
Description: as §1
One section per animal from layer 6 was also used to quantify the Iba1 immunoreactivity. […] Sections were imaged using a digital slide scanner (Pannoramic 250 BF Flash+FL, 3D Histech Ltd.) and quantified using the image visualization software CaseViewer and the image analysis software module HistoQuant (3D Histech Ltd.).

CN(C)[C@@H]1CCc2c(c3ccc(Nc4ccc5sc(N6CCOCC6)nc5c4)nc3n2C)C1 [Example 2]
sarkosyl insoluble Tau (sarkosyl-insoluble Tau): dose-dependent decrease | cortex size (rTg4510 mice): dose-dependent increase | Iba1 immunoreactive area (Iba1 positive microglia): significant decrease
